Here are results for 2 substances from US8790665B2, “Serum protein-based detection of random sequence polymer compositions” (Ares Trading SA, priority 2009, dated 2014).

Entries after “also recorded” stand apart in the source; their conditions may differ.

Data set [1] deals with Ig fraction of rabbit polyserum. Nature of the data set: ELISA with Ig fraction of rabbit polyserum. The conditions noted are these: FIG. 13. It is filed as binding.
The target of data set [2] is HLA-DR2 (DRB1*1501) (Homo sapiens, UniProt P01903+P01911). Conditions: peptide-specific manner; cited from earlier work.
For data set [3], the system named is RAW264.7. Nature of the data set: Bioassay: CCL22 release by monocyte cell line RAW264.7. It counts as cell-based. Conditions: RAW264.7 cells exposed to copolymer; FIGS. 10, 15. How it is done: Following synthesis of RSP compositions of different lengths, for example by solid phase synthesis or by solution phase synthesis, the individual lots or batches made by the same manufacturing process, and individual batches of mixtures manufactured by different processes are tested and compared for variation using bioassays such as the release of CCL22 by the monocyte cell line RAW264.7, by ex vivo proliferation assays, and by measuring the binding of serum proteins to peptides in the RSP composition, it is possible to determine subsets of peptides or even individual peptides that are present in any given process or lot. Processes and lots of RSP compositions will be compared to determine whether the same subsets of peptides and/or types of peptides are consistently represented across the different processes and lots.

A short description of data set [4]: YEAK in the serum of mice dosed IV or SC, detected by anti-YEAK ELISA. It is filed as in vivo. The conditions noted are these: FIG. 4. A general note: ELISA stands for enzyme-linked immunosorbent assay.
The test system of data set [5] is CCL22. Description: Acute release of CCL22 (MDC) in serum or plasma after YEAK administration in mice. It counts as in vivo. The conditions noted are these: FIG. 5.
Data set [6] deals with serum proteins. Nature of the data set: Identification of serum proteins bound to PI-2301 or Cop-1 (ELISA / CNBr-Sepharose capture, LC-MS/MS). It is filed as binding, human. The conditions noted are these: for serum proteins identified as bound: LC-MS/MS of tryptic digest, samples from Example 1 or 2; for binding to the serum proteins listed in Table C: normal human serum, direct ELISA. From the text: As a non-limiting example of the above described identification, PI-2301 or Cop-1 may be used in a direct ELISA assay (see Materials and Methods) to identify serum proteins that bind to the RSP composition comprising YFAK or YEAK peptides. […] It has been observed that YEAK and YFAK peptides have different binding specificities; conversely, serum proteins can be said to bind YEAK and YFAK peptides with different specificities. Tables D and E list serum proteins which associate with HDL and LDL, respectively. Any serum proteins may bind to the RSP composition described herein by varying affinities and selectivities.
An uncoated ELISA plate was blocked with PBS/0.1% Tween 20 for 2 hours at room temperature. PI-2301 or Cop-1 samples were serially diluted in PBS/5% normal human serum and added to the blocked and washed wells of the ELISA plate. The PI-2301 or Cop-1 in normal human serum was bound to the plate and unbound PI-2301 or Cop-1 was removed by washing the plate with PBS/0.05% Tween 20. Protein-A-purified anti-rabbit anti-PI-2301 or anti-rabbit anti-Cop-1, diluted to a suitable concentration based on the titer, was added for 1 hr at RT. After another wash step to remove the unbound rabbit anti-2301 or rabbit anti-Cop-1 antibodies, a secondary antibody, a goat anti-rabbit IgG-HRP (horse radish peroxidase conjugated antibody to rabbit IgG) was added to the well. After washing away any unbound secondary antibody, substrate for HRP was added to the wells and incubated for 15 minutes, which yielded a blue color that turns yellow when stop solution is added, the intensity of which color correlates with the amount of total PI-2301 or Cop-1 in the well. The optical density was measured at 450 nm with a ELISA plate reader and a titer curve was generated for each set of the serum samples spiked with PI-2301 and Cop-1, respectively. The limit of serum PI-2301 or serum Cop-1 detection is defined as the concentration which results in a A450 nm absorption which is 3 times above background. […]
Immobilized RSP compositions were prepared by reacting the peptides with CNBr-activated Sepharose®, a pre-activated large pore chromatography medium used for immobilizing ligands (proteins, peptides, nucleic acids) containing primary amines using the cyanogens bromide method. […] After pH neutralization, the absorbance at 280 nm of the eluted fractions was read to identify fractions containing the ligands. […]
Samples containing PI-2301 binding proteins or Cop-1 binding proteins were obtained by the method of Example 1 or Example 2. These samples were then enzymatically digested and analyzed by liquid chromatography tandem mass spectrometry (LC-MS/MS) for the purpose of identify the proteins which bind PI-2301 or Cop-1. […]

Data set [7] concerns the target HLA-DR1 (DRB1*0101) (Homo sapiens, UniProt P01903+P01911, A100R/D57E/F55L/F60I/F76Y/I96L/L162R/M171V/P40L/Q125E/R42F/V115G/Y59C). The conditions noted are these: peptide-specific manner; cited from earlier work.
Data set [8] addresses HLA-DR4 (DRB1*0401) (Homo sapiens, UniProt P01903+P01911, A100K/A169T/F76Y/I96L/K127E/L162R/M171V/N62H/P40V/Q125Y/R42H/S133A/S149N/S66Y/V115G/V209L/W38E). The conditions noted are these: peptide-specific manner; cited from earlier work.
The conditions of data set [9]: several hours after subcutaneous administration; various species, including man; cited from earlier work.
The conditions of data set [10]: administered at the same initial weight-by-volume concentration; cited from earlier work.
Data set [11] deals with preclinical models of multiple sclerosis and Crohn's disease. Description: Efficacy in preclinical models of multiple sclerosis and Crohn's disease. It is filed as in vivo. From the text:
Without wishing to be bound by theory, mechanistically, binding of peptides within RSP compositions, (e.g. PI-2301 and Cop-1) to the serum proteins such as lipoproteins found associated with HDL and LDL might facilitate their capture by monocytes through receptors such as SR-BI or ABCA1. This binding may induce activation of monocytes and their differentiation into anti-inflammatory cells. PI-2301 and Cop-1 differ in binding to serum proteins (see FIG. 3). One reason for the difference is that Cop-1 and generic variants of glatiramer acetates are made by solution phase peptide synthesis, thus significant variations in composition may be observed from lot to lot. In contrast, PI-2301 is manufactured by solid phase synthesis. […] Thus, the great majority of the PI-2301 52-mer peptides in the mixture is likely to be functional. Cop-1 has a much broader molecular weight distribution, making it likely that some species of the mixture, such as small peptide species, in the mixture are ineffective.

Data set [12] can be described thus: Serum concentration / exposure of PI-2301 compared with Cop-1. Conditions: in vivo. An excerpt: Certain RSP compositions persist much longer in the serum and other biological fluids than other mixtures. For example, a preparation of YFAK, PI-2301, is found at 10 times the serum concentration in comparison to Cop-1 administered at the same initial weight-by-volume concentration (US App. Pub. 2009-0275496). In some instances, the administered peptides are sequestered by or bound to some in vivo component in situ, the result of which is longer half-life in that environment, with or without enhancement in bioavailability. In certain embodiment, the environment is blood plasma or lymph. In an alternative embodiment, the environment is spinal or cerebral fluid. In yet other embodiments, the environment is any tissue or organ locale to which peptides from RSP compositions are delivered.
Without wishing to be bound by theory, mechanistically, binding of peptides within RSP compositions, (e.g. PI-2301 and Cop-1) to the serum proteins such as lipoproteins found associated with HDL and LDL might facilitate their capture by monocytes through receptors such as SR-BI or ABCA1. This binding may induce activation of monocytes and their differentiation into anti-inflammatory cells. PI-2301 and Cop-1 differ in binding to serum proteins (see FIG. 3). […]

For the substance glatiramer acetate [Cop-1], in data set [1], the “recognition by Ig fraction of rabbit polyserum” value was “interacts strongly”. Besides, the “binding affinity to purified HLA-DR2 (DRB1*1501)” value in data set [2] is “binds with high affinity”. Further, the CCL22 release entry in data set [3] is “released CCL22 in a concentration dependent manner”. The maximum serum concentration in data set [4] (mice dosed IV with 4 mg/kg or SC with 21 mg/kg, route for this value not stated) was determined as 1800 ng/mL. For the same substance, the “time of maximum serum concentration” value in data set [4] (post dosing, mice IV 4 mg/kg or SC 21 mg/kg) is listed as “around 15 min”. Further, the “relation between SC dose and observed maximum CCL22 plasma concentration” value in [5] was “linear correlation”. For the same substance, in data set [6], the “serum proteins identified as bound” value is “several lipoproteins from the HDL and LDL complexes; also recorded: complement proteins such as C3 and C4A”; the “binding to the serum proteins listed in Table C” value is “experimentally shown to bind”. Moreover, the “binding affinity to purified HLA-DR1 (DRB1*0101)” value in data set [7] is reported as “binds with high affinity”. Also, the “binding affinity to purified HLA-DR4 (DRB1*0401)” value in data set [8] was “binds with high affinity”. For the same substance, the detection in serum result in data set [9] is given as “can be detected”.

On to plovamer [PI-2301], for which the “serum concentration in comparison to Cop-1” value in data set [10] is recorded as 10 times. Further, the “efficacy (potency) compared with Cop-1” value in [11] is reported as “more potent than Cop-1”. Further, in data set [12], the “serum exposure compared with Cop-1” value is “greater serum exposure”. Besides, in [6], the “serum proteins identified as bound” value was “several lipoproteins from the HDL and LDL complexes”; the “binding to the serum proteins listed in Table C” value is listed as “experimentally shown to bind”. Besides, the detection in serum result in data set [9] is on record as “can be detected”.
